Data as given in BindingDB's records for patent US20240208932 (Xizang Haisco Pharmaceutical, 2024).

Key:
Experiment in all cases: CYP450 Enzyme Inhibition Assay
Cytochrome P450 2D6 = Cytochrome P450 2D6 (Homo sapiens, UniProt P10635)
Procedure: (§1) The purpose of this study was to evaluate the effect of the test compound on the activity of five isoenzymes (CYP1A2, CYP2C9, CYP2C19, CYP2D6 and CYP3A4) of human liver microsomal cytochrome P450 (CYP) by using an in vitro testing system. The specific probe substrates of CYP450 isoenzymes were incubated with human liver microsomes and test compounds of different concentrations, and reduced nicotinamide adenine dinucleotide phosphate (NADPH) was added to initiate the reaction. After the completion of the reaction, the sample was treated and liquid chromatography-tandem mass spectrometry (LC-MS/MS) was used to quantitatively detect metabolites produced by specific substrates, changes in CYP enzyme activity were determined, and IC50 value was calculated to evaluate the inhibitory potential of the test compound on each CYP enzyme subtype.

Cytochrome P450 1A2 = target: T1, Cytochrome P450 1A2 (Homo sapiens, UniProt P05177)
T1 sequence (P05177 whole entry): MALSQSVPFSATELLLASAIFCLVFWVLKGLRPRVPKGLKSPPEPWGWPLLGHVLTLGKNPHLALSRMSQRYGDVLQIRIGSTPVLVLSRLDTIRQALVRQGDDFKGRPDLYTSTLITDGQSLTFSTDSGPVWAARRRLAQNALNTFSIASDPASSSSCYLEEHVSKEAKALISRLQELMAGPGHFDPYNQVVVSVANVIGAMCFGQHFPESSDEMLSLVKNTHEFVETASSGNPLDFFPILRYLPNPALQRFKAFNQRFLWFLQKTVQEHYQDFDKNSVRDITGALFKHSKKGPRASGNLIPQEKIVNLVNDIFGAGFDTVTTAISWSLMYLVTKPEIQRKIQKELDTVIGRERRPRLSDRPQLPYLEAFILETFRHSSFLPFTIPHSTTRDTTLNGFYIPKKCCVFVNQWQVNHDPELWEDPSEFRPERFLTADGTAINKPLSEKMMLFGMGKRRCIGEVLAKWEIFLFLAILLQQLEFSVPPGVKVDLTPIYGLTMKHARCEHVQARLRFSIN
Procedure: as §1

Cytochrome P450 3A4 = Cytochrome P450 3A4 (Homo sapiens, UniProt P08684)
Cytochrome P450 3A4, sequence (P08684 whole entry): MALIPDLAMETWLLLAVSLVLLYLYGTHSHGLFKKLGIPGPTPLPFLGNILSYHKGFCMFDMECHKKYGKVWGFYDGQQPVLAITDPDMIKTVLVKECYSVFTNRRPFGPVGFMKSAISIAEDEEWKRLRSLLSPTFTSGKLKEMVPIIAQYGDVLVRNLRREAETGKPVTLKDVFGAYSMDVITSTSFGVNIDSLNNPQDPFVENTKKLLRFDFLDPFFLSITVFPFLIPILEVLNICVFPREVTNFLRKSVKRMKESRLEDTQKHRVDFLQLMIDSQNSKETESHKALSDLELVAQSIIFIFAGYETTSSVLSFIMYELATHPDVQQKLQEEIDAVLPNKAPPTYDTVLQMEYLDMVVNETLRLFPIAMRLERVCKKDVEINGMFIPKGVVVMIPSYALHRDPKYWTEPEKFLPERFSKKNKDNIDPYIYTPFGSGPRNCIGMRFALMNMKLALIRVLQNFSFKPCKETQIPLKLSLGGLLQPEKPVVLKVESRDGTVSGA
Procedure: as §1

Cytochrome P450 2C9 = Cytochrome P450 2C9 (Homo sapiens, UniProt P11712)
Cytochrome P450 2C9, sequence (P11712 whole entry): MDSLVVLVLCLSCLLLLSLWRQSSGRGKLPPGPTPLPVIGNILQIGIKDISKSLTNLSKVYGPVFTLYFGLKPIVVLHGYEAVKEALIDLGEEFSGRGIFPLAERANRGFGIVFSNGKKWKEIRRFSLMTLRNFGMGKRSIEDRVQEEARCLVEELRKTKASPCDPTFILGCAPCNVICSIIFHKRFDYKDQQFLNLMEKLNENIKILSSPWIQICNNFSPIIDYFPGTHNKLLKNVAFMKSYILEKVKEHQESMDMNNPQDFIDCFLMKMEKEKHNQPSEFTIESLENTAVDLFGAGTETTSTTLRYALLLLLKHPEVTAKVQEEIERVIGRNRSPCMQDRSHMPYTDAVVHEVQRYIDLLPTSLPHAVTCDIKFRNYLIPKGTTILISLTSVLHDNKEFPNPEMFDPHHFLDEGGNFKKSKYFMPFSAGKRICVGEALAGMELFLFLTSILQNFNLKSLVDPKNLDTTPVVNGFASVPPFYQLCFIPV
Procedure: as §1

Cytochrome P450 2C19 = Cytochrome P450 2C19 (Homo sapiens, UniProt P33261)
Cytochrome P450 2C19, sequence (P33261 whole entry): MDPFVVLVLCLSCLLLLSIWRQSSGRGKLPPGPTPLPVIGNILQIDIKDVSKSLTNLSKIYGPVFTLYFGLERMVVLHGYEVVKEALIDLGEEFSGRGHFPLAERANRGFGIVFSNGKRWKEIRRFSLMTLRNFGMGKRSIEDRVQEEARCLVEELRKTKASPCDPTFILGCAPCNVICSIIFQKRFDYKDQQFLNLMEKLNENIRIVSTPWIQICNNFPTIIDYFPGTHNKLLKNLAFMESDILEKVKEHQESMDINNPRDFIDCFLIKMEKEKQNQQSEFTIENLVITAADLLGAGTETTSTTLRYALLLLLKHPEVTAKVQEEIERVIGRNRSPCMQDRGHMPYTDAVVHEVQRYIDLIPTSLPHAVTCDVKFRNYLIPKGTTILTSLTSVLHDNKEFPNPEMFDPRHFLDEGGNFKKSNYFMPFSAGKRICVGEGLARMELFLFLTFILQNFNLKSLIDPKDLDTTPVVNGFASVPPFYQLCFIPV
Procedure: as §1

Cytochrome P450 2D6, sequence (P10635 whole entry): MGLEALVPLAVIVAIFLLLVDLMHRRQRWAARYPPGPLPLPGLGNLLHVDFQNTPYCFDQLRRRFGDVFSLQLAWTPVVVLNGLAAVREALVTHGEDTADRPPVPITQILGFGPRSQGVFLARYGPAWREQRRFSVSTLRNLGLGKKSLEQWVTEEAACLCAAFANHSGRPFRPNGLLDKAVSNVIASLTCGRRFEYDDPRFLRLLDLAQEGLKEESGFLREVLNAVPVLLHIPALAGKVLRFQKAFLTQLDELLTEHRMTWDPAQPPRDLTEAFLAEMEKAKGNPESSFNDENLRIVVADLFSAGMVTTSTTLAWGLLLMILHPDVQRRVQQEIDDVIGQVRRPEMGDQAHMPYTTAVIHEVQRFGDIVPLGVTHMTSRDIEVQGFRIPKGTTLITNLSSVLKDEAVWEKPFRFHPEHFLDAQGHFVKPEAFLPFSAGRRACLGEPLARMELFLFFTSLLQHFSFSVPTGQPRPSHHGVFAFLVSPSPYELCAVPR

IC50 (Cytochrome P450 2D6): 13.8 µM
IC50 (Cytochrome P450 1A2): 15.6 µM
IC50 (Cytochrome P450 3A4): 12.8 µM
IC50 (Cytochrome P450 2C9): 15.6 µM
IC50 (Cytochrome P450 2C19): 19.1 µM
SMILES: C[C@@H]1Cc2c([nH]c3ccccc23)[C@H](c2c(F)cc(N[C@H]3CCN(CCCF)C3)cc2F)N1CC(F)(F)F [WO2021228210, Compound 4]
